concentration, Kp and IC50 data for six molecules are collected here from patent US20170226120A1, “INHIBITORS OF HIF PROLYL HYDROXYLASE” (MERCK SHARP & DOHME CORP., priority 2014, published 2017).

Read-outs that look alike come from different tables or passages of the source.

As a reminder, the IC50 is the concentration that inhibits the measured activity by half. Read a low IC50 as higher potency.

Data set [1] is described as follows: Tissue PK profile in rat (liver and plasma drug level). Type of data set: in vivo. The following applies: 10 mg/kg; for concentration at 4 h: po; for Kp at 4 h: liver/plasma, read-out: liver/plasma ratio. As for the experimental part:
The tissue PK profile of compounds described in this application were evaluated in rat. The tissue was harvested 4 hours after PO dosing at 10 mpk (vehicle: 0.5% MC; dose volume: 5 mL/Kg) and the drug level was determined. Shown in Table 1 are compound concentrations of selected examples in rat liver and plasma, as well as liver to plasma drug ratio.

Data set [2] addresses T1, human HIF-PHD2 (Homo sapiens, UniProt Q9GZT9).
T1 construct: FLAG-tagged full length PHD2 expressed in and purified from baculovirus-infected Sf9 cells; FLAG; made in house; host or cells: baculovirus-infected Sf9 cells
Put plainly: HIF-PHD2 inhibition, time resolved fluorescence assay of HIF-1α peptide hydroxylation. The class given is biochemical. The following applies: FLAG-tagged full length PHD2; 0.2 μM 2-oxoglutarate, 0.5 μM HIF-1α peptide. As for the experimental part: To each well of a 384-well plate, 1 μL of test compounds in DMSO (final concentration ranging from 0.3 nM to 10 uM) were added into 20 μl of assay buffer (50 mM Tris pH 7.4/0.01% Tween-20/0.1 mg/ml bovine serum albumin/10 μM ferrous sulfate/1 mM sodium ascorbate/20 μg/ml catalase) containing 0.15 μg/ml FLAG-tagged full length PHD2 expressed in and purified from baculovirus-infected Sf9 cells. After a 5 min preincubation at room temperature, the enzymatic reactions were initiated by the addition of 4 μL of substrates {final concentrations of 0.2 μM 2-oxoglutarate and 0.5 μM HIF-1α peptide biotinyl-[…] […] After incubation for 45 minutes at room temperature, the reactions were terminated by the addition of a 25 μL quench/detection mix to a final concentration of 1 mM ortho-phenanthroline, 0.1 mM EDTA, 0.5 nM anti-(His)6 LANCE reagent (Perkin-Elmer Life Sciences), 100 nM AF647-labeled streptavidin (Invitrogen), and 2 μg/ml (His)6-VHL complex {S. Tan Protein Expr. Purif.

Where [3] appears, read: liver, 4 hours after PO dosing at 10 mpk, vehicle 0.5% MC, read-out: liver concentration.
The mark [4] stands for this setting: 4 hours after PO dosing at 10 mpk, vehicle 0.5% MC.
Where [5] appears, read: plasma, 4 hours after PO dosing at 10 mpk, vehicle 0.5% MC, read-out: plasma concentration.

T1 sequence (Q9GZT9 whole entry): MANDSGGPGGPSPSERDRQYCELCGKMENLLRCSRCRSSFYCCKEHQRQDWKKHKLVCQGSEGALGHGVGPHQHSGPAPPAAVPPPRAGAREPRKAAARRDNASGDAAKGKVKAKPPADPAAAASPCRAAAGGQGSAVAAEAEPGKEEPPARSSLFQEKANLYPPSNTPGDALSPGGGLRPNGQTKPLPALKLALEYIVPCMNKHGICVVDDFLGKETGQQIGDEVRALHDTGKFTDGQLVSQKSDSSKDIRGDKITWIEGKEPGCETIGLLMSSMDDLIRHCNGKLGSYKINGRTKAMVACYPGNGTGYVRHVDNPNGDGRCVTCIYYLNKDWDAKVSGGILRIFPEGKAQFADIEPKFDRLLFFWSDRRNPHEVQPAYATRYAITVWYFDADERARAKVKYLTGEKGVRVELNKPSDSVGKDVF

Regarding `NC(=O)c1ccc(-c2ccc(Cn3c4c(c(O)c(C(=O)NCC(=O)O)c3=O)COC4)cc2)cc1` [Example 61, 2-(1-((4′-carbamoyl-[1,1′-biphenyl]-4-yl)methyl)-4-hydroxy-2-oxo-1,2,5,7-tetrahydrofuro[3,4-b]pyridine-3-carboxamido)acetic acid], the concentration at 4 h turned out to be 25.8 nM in data set [1] (setting [3]) and 5.28 nM in data set [1] (setting [5]). The Kp at 4 h in data set [1] (setting [4]) turned out to be 4.89. In addition, half-maximal inhibition in data set [2] (IC50) was put at 1.1 nM.
`N#Cc1ccc(Cn2c3c(c(O)c(C(=O)NCC(=O)O)c2=O)COC3)cc1` [Example 6, 2-(1-(4-Cyanobenzyl)-4-hydroxy-2-oxo-1,2,5,7-tetrahydrofuro[3,4-b]pyridine-3-carboxamido)acetic acid]: the results for the concentration at 4 h in data set [1] (setting [3]) and in data set [1] (setting [5]) were 1820 nM and 123 nM, respectively. The Kp at 4 h in data set [1] (setting [4]) came out at 17.9. For the same molecule, half-maximal inhibition in data set [2] (IC50) was put at 3.1 nM.
Regarding `N#Cc1ccc(-c2ccc(Cn3c4c(c(O)c(C(=O)NCC(=O)O)c3=O)COC4)cc2)cc1` [Example 24, 2-(1-((4′-cyano-[1,1′-biphenyl]-4-yl)methyl)-4-hydroxy-2-oxo-1,2,5,7-tetrahydrofuro[3,4-b]pyridine-3-carboxamido)acetic acid], the concentration at 4 h is 642 nM in data set [1] (setting [3]) and 13.7 nM in data set [1] (setting [5]). The Kp at 4 h in data set [1] (setting [4]) stood at 30.4. The molecule also gave an IC50 in data set [2] of 1.5 nM.
With `CC(C)(O)c1ccc(Cn2c3c(c(O)c(C(=O)NCC(=O)O)c2=O)COC3)cc1` [Example 5, 2-(4-Hydroxy-1-(4-(2-hydroxypropan-2-yl)benzyl)-2-oxo-1,2,5,7-tetrahydrofuro[3,4-b]pyridine-3-carboxamido)acetic acid], the concentration at 4 h in data set [1] (in vivo, liver concentration) came to 5600 nM; in data set [1] (in vivo, plasma concentration) it was 26.7 nM. In data set [1] (setting [4]), the Kp at 4 h worked out at 214.
With `Cc1cc(Cl)ccc1Cn1c2c(c(O)c(C(=O)NCC(=O)O)c1=O)COC2` [Example 42, 2-(1-(4-chloro-2-methylbenzyl)-4-hydroxy-2-oxo-1,2,5,7-tetrahydrofuro[3,4-b]pyridine-3-carboxamido)acetic acid], the concentration at 4 h in data set [1] (setting [3]) was 54200 nM; in data set [1] (setting [5]) it was 1520 nM. Moreover, the Kp at 4 h in data set [1] (setting [4]) was 35.6. The IC50 in data set [2] was determined as 4.1 nM.
In the case of `O=C(O)CNC(=O)c1c(O)c2c(n(Cc3ccc(F)cc3F)c1=O)COC2` [Example 32, 2-(1-(2,4-difluorobenzyl)-4-hydroxy-2-oxo-1,2,5,7-tetrahydrofuro[3,4-b]pyridine-3-carboxamido)acetic acid], the concentration at 4 h in data set [1] (in vivo, liver concentration) turned out to be 24800 nM; in data set [1] (in vivo, plasma concentration), 492 nM. Moreover, the Kp at 4 h in data set [1] (setting [4]) is 52.8.
